In ChEMBL document CHEMBL1138862 (J Med Chem, 2006):

Tested on: Escherichia coli
Assay: Antibacterial activity against Escherichia coli W3110
Assay type: functional

## CC(N)CC(O)(P(=O)(O)O)P(=O)(O)O (centres undefined)
  inhibition zone (IZ): 0 mm

## O=P(O)(O)C(Nc1ccc(Cl)nc1)P(=O)(O)O
  inhibition zone (IZ): 0 mm

## CN(Cc1ccccc1)C(P(=O)(O)O)P(=O)(O)O
  inhibition zone (IZ): 0 mm

## CC1CCCN(C(P(=O)(O)O)P(=O)(O)O)C1 (centres undefined)
  inhibition zone (IZ): 0 mm

## O=P(O)(O)C(O)(Cc1ccccn1)P(=O)(O)O
  inhibition zone (IZ): 0 mm

## O=P(O)(O)C(O)(CCc1cccnc1)P(=O)(O)O
  inhibition zone (IZ): 0 mm

## CCCCCCCCCCCC(O)(P(=O)(O)O)P(=O)(O)O
  inhibition zone (IZ): 0 mm

## O=P(O)(O)C(NC1CCC1)P(=O)(O)O [(CYCLOBUTYLAMINO)METHYLENEDIPHOSPHONIC ACID]
  inhibition zone (IZ): 0 mm

## O=P(O)(O)C(O)(C1CCC1)P(=O)(O)O [CYCLOBUTYL(HYDROXY)METHYLENEDIPHOSPHONIC ACID]
  inhibition zone (IZ): 0 mm

## O=P(O)(O)C(O)(C1CC1)P(=O)(O)O [CYCLOPROPYL(HYDROXY)METHYLENEDIPHOSPHONIC ACID]
  inhibition zone (IZ): 0 mm

## CCCCOc1ccc(NC(P(=O)(O)O)P(=O)(O)O)cc1
  inhibition zone (IZ): 0 mm

## O=P(O)(O)Cc1cccc(CP(=O)(O)O)c1
  inhibition zone (IZ): 0 mm

## CC1CCCC(C)N1C(P(=O)(O)O)P(=O)(O)O (centres undefined)
  inhibition zone (IZ): 0 mm

## CCc1cccc(NC(P(=O)(O)O)P(=O)(O)O)n1
  inhibition zone (IZ): 0 mm

## O=P(O)(O)C(Nc1cc2ccccc2cn1)P(=O)(O)O
  inhibition zone (IZ): 0 mm

## CCCCCCCCCCCCCCCCCC(O)(P(=O)(O)O)P(=O)(O)O
  inhibition zone (IZ): 0 mm

## O=P(O)(O)C(O)(CSc1ccncc1)P(=O)(O)O
  inhibition zone (IZ): 0 mm

## CCCCc1ccc(NC(P(=O)(O)O)P(=O)(O)O)cc1
  inhibition zone (IZ): 0 mm

## O=P(O)(O)C(CNc1ccccn1)P(=O)(O)O
  inhibition zone (IZ): 0 mm

## O=P(O)(O)C(NC1CCCC1)P(=O)(O)O [(CYCLOPENTYLAMINO)METHYLENEDIPHOSPHONIC ACID]
  inhibition zone (IZ): 0 mm

## CCCCCCCCCNC(P(=O)(O)O)P(=O)(O)O [(NONYLAMINO)METHYLENEDIPHOSPHONIC ACID]
  inhibition zone (IZ): 0 mm

## O=P(O)(O)C(Nc1cccnc1Cl)P(=O)(O)O
  inhibition zone (IZ): 0 mm

## CCCCCCC(O)(P(=O)(O)O)P(=O)(O)O
  inhibition zone (IZ): 0 mm

## CCCC(O)(P(=O)(O)O)P(=O)(O)O
  inhibition zone (IZ): 0 mm

## CCc1ccc(NC(P(=O)(O)O)P(=O)(O)O)cc1
  inhibition zone (IZ): 0 mm

## Cc1nc(NC(P(=O)(O)O)P(=O)(O)O)c(Br)cc1Br
  inhibition zone (IZ): 0 mm

## O=P(O)(O)C(NC1CCCCCC1)P(=O)(O)O [INCADRONIC ACID]
  inhibition zone (IZ): 0 mm

## O=P(O)(O)C(Nc1ccc(Cl)cc1Cl)P(=O)(O)O [2,4-DICHLOROPHENYLAMINOMETHYLENEBISPHOSPHONIC ACID]
  inhibition zone (IZ): 0 mm

## O=P(O)(O)C(O)(Cc1cccnc1)P(=O)(O)O [RISEDRONIC ACID]
  inhibition zone (IZ): 0 mm

## O=P(O)(O)C(N1CCCCC1)P(=O)(O)O
  inhibition zone (IZ): 0 mm

## O=P(O)(O)C(Nc1ncc(Br)cc1Br)P(=O)(O)O
  inhibition zone (IZ): 0 mm

## CCCCCCCCNC(P(=O)(O)O)P(=O)(O)O [(OCTYLAMINO)METHYLENEDIPHOSPHONIC ACID]
  inhibition zone (IZ): 0 mm

## O=P(O)(O)CC(c1ccncc1)P(=O)(O)O (centres undefined)
  inhibition zone (IZ): 0 mm

## NCCC(O)(P(=O)(O)O)P(=O)(O)O [PAMIDRONIC ACID]
  inhibition zone (IZ): 0 mm

## CCC1CCCCN1C(P(=O)(O)O)P(=O)(O)O (centres undefined)
  inhibition zone (IZ): 0 mm

## O=P(O)(O)CC(c1cccnc1)P(=O)(O)O (centres undefined)
  inhibition zone (IZ): 0 mm

## NCCCCC(O)(P(=O)(O)O)P(=O)(O)O
  inhibition zone (IZ): 0 mm

## CCCCC(O)(P(=O)(O)O)P(=O)(O)O
  inhibition zone (IZ): 0 mm

## O=P(O)(O)C(O)(Cc1ccncc1)P(=O)(O)O
  inhibition zone (IZ): 0 mm

## O=P(O)(O)C(Nc1cccnc1)P(=O)(O)O
  inhibition zone (IZ): 0 mm

## O=P(O)(O)C(Nc1c(F)c(F)c(F)c(F)c1F)P(=O)(O)O
  inhibition zone (IZ): 0 mm

## O=P(O)(O)C(O)(Cc1ccccc1)P(=O)(O)O
  inhibition zone (IZ): 0 mm

## Nc1ccc(CC(O)(P(=O)(O)O)P(=O)(O)O)cc1
  inhibition zone (IZ): 0 mm

## NCCCCCC(O)(P(=O)(O)O)P(=O)(O)O [NERIDRONIC ACID]
  inhibition zone (IZ): 0 mm
